Assay results from patent US20240299348A1, “MODULATORS OF TRPML, THEIR COMPOSITIONS AND METHODS OF USE” (Caraway Therapeutics, Inc., priority 2021, published 2024).
Like-named read-outs stand apart in the source and are kept apart here.

Experiments:
hTRPML2 = target: T1, hTRPML2 (Homo sapiens, UniProt Q8IZK6); assay: TRPML2 fluorescent (Fluo-4) assay; assay type: cell-based
T1 construct: expressed in transfected cells; host or cells: HEK-293 Trex (by analogy, 'performed as above')
T1 sequence (Q8IZK6 1-566): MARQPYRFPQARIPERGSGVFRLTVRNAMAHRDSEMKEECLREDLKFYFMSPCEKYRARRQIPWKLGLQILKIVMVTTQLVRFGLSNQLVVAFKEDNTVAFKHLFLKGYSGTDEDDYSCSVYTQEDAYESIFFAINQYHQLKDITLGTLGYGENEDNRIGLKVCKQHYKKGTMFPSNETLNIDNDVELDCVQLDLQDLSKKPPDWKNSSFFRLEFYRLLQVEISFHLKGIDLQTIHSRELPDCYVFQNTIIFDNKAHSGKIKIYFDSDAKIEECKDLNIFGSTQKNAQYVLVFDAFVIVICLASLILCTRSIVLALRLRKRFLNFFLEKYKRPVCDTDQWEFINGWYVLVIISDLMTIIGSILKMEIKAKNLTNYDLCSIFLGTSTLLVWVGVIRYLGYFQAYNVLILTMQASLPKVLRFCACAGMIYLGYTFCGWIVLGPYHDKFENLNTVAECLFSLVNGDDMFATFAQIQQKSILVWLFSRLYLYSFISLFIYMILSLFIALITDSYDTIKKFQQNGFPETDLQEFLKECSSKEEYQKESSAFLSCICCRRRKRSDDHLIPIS
Description: (§1) Assays for TRPML2 and TRPML3 were performed as above for TRPML1, by substituting the appropriate TRPML2 or TRPML3 subtype for the TRPML1.
(§2) EC50 values were calculated using a non-linear regression of Prism.

hTRPML3 = target: T2, hTRPML3 (Homo sapiens, UniProt Q8TDD5); assay: TRPML3 fluorescent (Fluo-4) assay; assay type: cell-based
T2 construct: expressed in transfected cells; host or cells: HEK-293 Trex (by analogy, 'performed as above')
T2 sequence (Q8TDD5 1-553): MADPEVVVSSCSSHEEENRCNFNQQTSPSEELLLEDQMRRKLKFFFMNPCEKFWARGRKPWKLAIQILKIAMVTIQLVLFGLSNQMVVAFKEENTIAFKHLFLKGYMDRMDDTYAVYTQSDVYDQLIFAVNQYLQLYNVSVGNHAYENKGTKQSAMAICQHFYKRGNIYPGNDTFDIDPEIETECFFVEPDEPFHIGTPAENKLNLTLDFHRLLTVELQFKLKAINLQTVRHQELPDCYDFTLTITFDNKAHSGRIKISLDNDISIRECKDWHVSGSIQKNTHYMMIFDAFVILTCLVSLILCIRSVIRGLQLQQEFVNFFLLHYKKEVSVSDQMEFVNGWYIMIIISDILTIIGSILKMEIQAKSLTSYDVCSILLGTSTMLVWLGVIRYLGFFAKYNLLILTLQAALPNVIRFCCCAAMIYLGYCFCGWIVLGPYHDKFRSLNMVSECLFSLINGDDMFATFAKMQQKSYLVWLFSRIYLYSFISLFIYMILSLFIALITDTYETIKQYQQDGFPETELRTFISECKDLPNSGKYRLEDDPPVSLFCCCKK
Description: as §1, §2

hTRPML1 [1] = target: T3, hTRPML1 (Homo sapiens, UniProt Q9GZU1); assay: TRPML1 fluorescent (Fluo-4) assay; assay type: cell-based; set-up: Secondary Screening: Fluo-4: hTRPML1: EC50 (M); HEK-293 Trex cells expressing hTRPML1; conditions: activation; HEK-293 Trex cells expressing hTRPML1; read-out: Secondary Screening: Fluo-4: hTRPML1: EC50
Description: (§3) HEK-293 Trex cells were stably transfected with a construct consisting of the human coding sequence for TRPML1 cloned into the […] plasmid pCDNA5 T/O. Mutations were introduced into the TRPML1 sequence to facilitate expression on the cell surface (Silvia Vergarajauregui, Rosa Puertollano Traffic. 2006 March; 7(3): 337-353). Briefly, the cells are cultured in 150 mm round tissue culture dishes containing 20 mL of media. The day before the assay the cells are rinsed with DPBS—Ca—Mg and then treated briefly with Trypsin-EDTA. The Trypsin-EDTA is diluted with growth media, and cells are counted. 38×10^6 cells are re-plated into 150 mm round tissue culture dishes in media containing 0.5 ug/mL doxycycline to induce expression of hTRPML1.
The day of the experiment cells are lifted from the plates as above and collected by centrifugation. The cells are then suspended in dye loading buffer consisting of Ringer's solution supplemented with 0.1% Pluronic Acid and 1 micromolar Fluo4-AM dye. Cells are loaded for ˜60 minutes in the dark with occasional mixing. The cells are collected by centrifugation, the loading media aspirated, and the cells resuspended in 25 mL Ringer's solution and incubated ˜60 minutes in the dark. The cells are again collected by centrifugation, rinsed in Ringer's Solution and resuspended to 0.2×10^6 cells/mL in modified Ringer's solution containing 10 mM calcium.
Compounds are dissolved to a concentration of 10 millimolar with DMSO. Compound plates are created by dispensing compounds into 384 well black wall clear bottom plates (Greiner 781091). Positive and negative controls are included on each plate. Typically, different amounts of each compound are tested ranging from 100 nanoMoles (20 micromolar final concentration) decreasing in half-log steps to 31 picoMoles (6 nanomolar final concentration). Each concentration is typically tested in triplicate.
(§4) 50 microliters of dye-loaded cells are dispensed into each well of the compound assay plate created above. The fluorescence in each well is then determined with an excitation wavelength of 480 nm and an emission wavelength of 540 nm using either a Molecular Devices SpectraMax multimode plate reader or a Hamamatsu FDSS/uCell plate imager.
(§5) The resulting fluorescence for each well is exported as an ascii file and loaded into our LIMS for analysis. The percent activity of each compound at each concentration is determined by comparison to the positive and negative control wells included in each plate.
as §2

[2] = system: mIMCD-3 cells with the PKD1 gene knocked out; assay: Forskolin-induced cyst swelling, in vitro model of Polycystic Kidney Disease; assay type: cell-based, murine; conditions: 5 uM forskolin, 72 hours of compound treatment; DMSO 100%+/−7.1
Description: Shown in FIG. 3 are results from an experiment where mIMCD-3 cells with the PKD1 gene knocked out via CRISPR-generated frameshifting indels were seeded into 384 well plates containing Matrigel and cultured in standard growth media for 4 days until they formed spherical organoid cysts as described in Reference 1 (Booij et al., SLAS Discov. 2017 September; 22(8):974-984). TRPML1 activators and vehicle were added to the cells at the indicated concentrations, in combination with 5 uM forskolin to induce cyst swelling. Four replicates per treatment were used. Approximately half of the media in each well was replaced with fresh media containing compounds and forskolin every 24 hours. After 72 hours of compound treatment, the cysts were fixed and stained for nuclei (DAPI) and actin (fluorescent-conjugated phalloidin). The ability of the TRPML1 activators to inhibit forskolin-induced cyst swelling was assessed using the 2-dimensional cross-sectional area of each cyst as measured using a high content microscope with a 4× objective, and analyzed using proprietary Ominer software. Cyst areas were averaged within each well and normalized to the vehicle control (DMSO).

TRPMLs = conditions: literature report; cited from earlier work
hTRPML1 [3] = target: T3, hTRPML1; assay: TRPML1 fluorescent (Fluo-4) assay; assay type: cell-based; set-up: fused on or other part: Possibly a GCaMP calcium sensor fused on, for the parenthetic 'GCaMP surface assay' value
Description: as §3, with “38×10^6 cells are re-plated into 150 mm round tissue culture dishes in media containing 0.5 ug/mL doxycycline to induce expression of hTRPML1.” left out
as §4, §5, §2

TRPML1 = TRPML1 (Homo sapiens, UniProt Q9GZU1, L15A/L16A); assay: GCaMP surface assay; assay type: cell-based
[4] = system: HeLa cells with the NPC1 gene knocked out; assay: Total hexosylceramides in HeLa cells with NPC1 gene knocked out; assay type: cell-based; conditions: NPC1 knockout HeLa, FIG. 1
Description: (§6) HeLa cells with the NPC1 gene knocked out via CRISPR-generated frameshifting indels were grown in standard cell culture conditions (DMEM high glucose with 10% FBS and penicillin/streptomycin). Cells were treated with the indicated concentrations of TRPML1 activators for 48 hours; media and compound were refreshed every 24 hours (FIG. 1). Two replicates per treatment were used. Cells were pelleted in PBS, frozen, and shipped to the Medical University of South Carolina (MUSC) for lipid quantitation by mass spectrometry. Lipid quantities were normalized to total inorganic phosphate in the cell sample as assessed by mass spectrometry. […] Statistical significance versus DMSO (p values indicated above) unpaired t-test.

[5] = system: HeLa cells with the NPC2 gene knocked out; assay: Total hexosylceramides in HeLa cells with NPC2 gene knocked out; assay type: cell-based; conditions: NPC2 knockout HeLa
Description: as §6
Shown in FIG. 2 are results from the same experiment described in FIG. 1, but using HeLa cells with the NPC2 gene knocked out via CRISPR.

[6] = activation, read-out: Secondary Screening: Fluo-4: hTRPML2: EC50
[7] = activation, read-out: Secondary Screening: Fluo-4: hTRPML3: EC50

T3 sequence (Q9GZU1 whole entry L15A/L16A/L577A/L578A, form open): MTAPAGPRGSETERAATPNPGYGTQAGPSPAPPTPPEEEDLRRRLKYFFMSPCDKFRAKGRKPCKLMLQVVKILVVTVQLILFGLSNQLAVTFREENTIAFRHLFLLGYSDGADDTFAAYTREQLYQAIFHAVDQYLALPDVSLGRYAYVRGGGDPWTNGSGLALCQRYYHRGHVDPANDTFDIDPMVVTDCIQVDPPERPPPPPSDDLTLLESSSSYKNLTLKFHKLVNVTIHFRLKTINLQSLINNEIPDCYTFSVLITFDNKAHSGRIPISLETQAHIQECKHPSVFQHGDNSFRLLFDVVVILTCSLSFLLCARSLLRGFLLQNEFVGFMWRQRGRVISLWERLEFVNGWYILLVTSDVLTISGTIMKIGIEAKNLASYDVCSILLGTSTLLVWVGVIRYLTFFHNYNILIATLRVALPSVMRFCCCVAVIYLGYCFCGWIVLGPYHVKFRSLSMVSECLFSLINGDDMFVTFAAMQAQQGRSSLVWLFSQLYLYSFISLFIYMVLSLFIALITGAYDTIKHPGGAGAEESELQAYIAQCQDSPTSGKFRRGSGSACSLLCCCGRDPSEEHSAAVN
TRPML1, sequence (Q9GZU1 with tags, fused parts or gaps L15A/L16A): as the sequence (Q9GZU1 whole entry L15A/L16A/L577A/L578A, form open) above

Row | EC50 (hTRPML2; [6]) [nM] | EC50 (hTRPML3; [7]) [nM] | EC50 (hTRPML1 [1]) [nM] | Structure (SMILES) | cyst area normalized to the vehicle control (DMSO) [2] | other results
1 | < 300 | < 300 | 300 to 1000 | CN(c1ccccc1NS(=O)(=O)c1ccc(S(=O)(=O)N(C)C)cc1)C1CCN(c2ccc(Cl)cc2F)C1 (stereo not drawn) [Compound 101, N^1-(2-((1-(4-chloro-2-fluorophenyl)pyrrolidin-3-yl)(methyl)amino)phenyl)-N^4,N^4-dimethylbenzene-1,4-disulfonamide] | 51.2%+/−1.6 | total hexosylCeramides compared with DMSO vehicle (in words) [4]: reduced; total HexosylCeramides ([5]; 48 hours treatment, DMSO 6.45+/−0.28): 3.48+/−0.20 HexCer/nmol Pi/sample; total hexosylCeramides compared with DMSO vehicle (in words) ([5]; FIG. 2): reduced
2 | 1000 to 5000 | 300 to 1000 | < 300 | CN(C)S(=O)(=O)c1ccc(S(=O)(=O)N[C@@H]2CCCCC[C@H]2N2CCN(c3ccc(Cl)cc3F)CC2)cc1 (relative stereo) [Compound 120, trans-N^1-(2-(4-(4-chloro-2-fluorophenyl)piperazin-1-yl)cycloheptyl)-N^4,N^4 dimethylbenzene-1,4-disulfonamide] |  | 
3 | > 5000 | 1000 to 5000 | 300 to 1000 | CN(c1ccccc1NS(=O)(=O)c1ccc(S(C)(=O)=O)cc1)C1CCN(c2ccc(Cl)cc2F)C1 (stereo not drawn) [Compound 113, N-(2-((1-(4-Chloro-2-fluorophenyl)pyrrolidin-3-yl)(methyl)amino)phenyl)-4-(methylsulfonyl)benzene-sulfonamide] |  | 

Continued, compound first:

Row | Structure (SMILES) | EC50 (hTRPML2; [6]) [nM] | EC50 (hTRPML3; [7]) [nM] | EC50 (hTRPML1 [1]) [nM] | cyst area normalized to the vehicle control (DMSO) [2] | other results
4 | CN(C1CCN(c2ccccc2F)C1)[C@H]1CCCC[C@@H]1NS(=O)(=O)c1ccc(S(=O)(=O)N(C)C)cc1 (relative stereo) [Compound 121, trans-N^1-(2-((1-(2-fluorophenyl)pyrrolidin-3-yl)(methyl)amino)-cyclohexyl)-N^4,N^4-dimethylbenzene-1,4-disulfonamide] | 1000 to 5000 | 300 to 1000 | 1000 to 5000 |  | 
5 | CC1CC(C)(C)N(C(=O)CN2C(=O)c3ccccc3C2=O)c2ccccc21 (stereo not drawn) [Compound 126, reference compound] |  |  |  | 72.3%+/−2.5 | TRPML2 activation EC50 (Table 2, class) (hTRPML2; Table 2 key): B/C/D; EC50 (hTRPML2; read-out: TRPML2 activation EC50 (Table 2, number)): 5410 nM; EC50 (hTRPML3; read-out: TRPML3 activation EC50 (Table 2, number)): 1580 nM; concentration needed to effectively activate TRPMLs (TRPMLs): ~10 µM; TRPML1 activation EC50 (Table 2, class) (hTRPML1 [3]; Table 2 key): B/C/D; EC50 (hTRPML1 [3]; read-out: TRPML1 activation EC50 (Table 2, number)): 3520 nM
6 | Cc1ccc(S(=O)(=O)Nc2ccccc2N2CCCCC2)s1 [Compound 127, reference compound] |  |  |  | 79.6%+/−3.8 | EC50 (TRPML1): 2640 nM
7 | CN(C)S(=O)(=O)c1ccc(S(=O)(=O)Nc2ccccc2N2CCN(c3ccc(Cl)cc3F)CC2)cc1 [Compound 125] |  |  |  | 69.6%+/−4.4 | EC50 (TRPML1): 453 nM
8 | CN(C)S(=O)(=O)c1ccc(S(=O)(=O)N[C@@H]2CCCCC[C@@H]2N2CCN(c3ccc(Cl)cc3F)CC2)cc1 (relative stereo) [Compound 122, Cis-N^1-(2-(4-(4-chloro-2-fluorophenyl)piperazin-1-yl)cycloheptyl)-N^4,N^4-dimethylbenzene-1,4-disulfonamide] | 1000 to 5000 | 300 to 1000 | < 300 |  | 
9 | CN(c1ccccc1NS(=O)(=O)c1ccc(S(=O)(=O)N(C)C)cc1)C1CCN(C(=O)Oc2ccccc2)C1 (stereo not drawn) [Compound 123, Phenyl 3-((2-((4-(N,N-dimethylsulfamoyl)phenyl)sulfonamido)phenyl)(methyl)amino)pyrrolidine-1-carboxylate] | 1000 to 5000 | 300 to 1000 | 1000 to 5000 |  | 
